“Also recorded” adds a separate entry of the source. Residues, ends and D or L forms follow the SMILES beside them.
Assays:
[1] = test system: angiotensin converting enzyme (ACE) (EC 3.4.15.1, Sigma); assay: In vitro inhibitory activity of the angiotensin converting enzyme (ACEI activity); assay type: biochemical; conditions: result in words
Experimental: Measurement of the Inhibitory Activity of the Angiotensin Converting Enzyme (ACEI Activity)
The inhibitory activity of the angiotensin converting enzyme (ACE) is measured in vitro according to the method of D. W. Cushman and H. S. Cheung (Spectrophotometric assay and properties of the angiotensin-converting enzyme of rabbit lung. Biochemical Pharmacology, 1971, 20: 1637-1648), later on modified by Y. K. Kim, S. Yoon, D. Y. Yu, B. Lönnerdal and B. H. Cheung (Novel angiotensin-I-converting enzyme inhibitory peptides derived from recombinant human αs1-casein expressed in Escherichia coli, Journal of Dairy Research 1999, 66, 431-439).
The substrate hippuryl histidyl leucine (HHL, Sigma Chemicals Co., St. Louis, Mo., USA) is dissolved in a 0.1 M borate buffer with 0.3 M NaCl pH 8.3 to obtain a final concentration of 5 mM. To 100 μl of substrate are added 40 μl of each of the samples whose ACEI activity it is wished to determine. The ACE enzyme (EC 3.4.15.1, Sigma) is added, dissolved in 50% glycerol and diluted 1/10 in bidistilled water at the moment of conducting the assay. The reaction is carried out at 37° C. for 30 minutes in a water-bath. The enzyme is deactivated by lowering the pH with 150 μl of 1 N HCl. The hippuric acid formed is extracted with 1000 μl of ethyl acetate. Following vortex stirring for 20 seconds, it is centrifuged at 4000 rpm for 10 minutes at room temperature. 750 μl of the organic phase are taken and evaporated by heating at 95° C. for 10 minutes. The hippuric acid residue is redissolved in 800 μl of bidistilled water and, following stirring for 20 seconds, the absorbency at 228 nm is measured in a Dur-70 spectrophotometer from Beckman Instruments, Inc., Fullerton, USA.
In order to calculate the percentage of ACEI activity, the following formula is used
The blank is used for correcting the background absorbency. This contains substrate, enzyme and 20 μl of bidistilled water in place of the sample, and the reaction is halted at zero time. The control implies a hundred percent of the enzymatic action on the substrate in the absence of inhibitors and contains 20 μl of water in place of the sample and is incubated the same time as the sample.
The results are presented as the IC50 (μM or μg/ml) or concentration at which 50% of the enzyme's activity is inhibited. The concentration of protein is determined by means of the bicinchonomic acid (BCA) assay (Pierce, Rockford, Ill., USA) using bovine seroalbumin as reference.

Wistar-Kyoto rats (WKY) [2] = assay: Effect on systolic arterial pressure (SAP) in normotense Wistar-Kyoto rats; assay type: in vivo, rat; conditions: intragastric probe, highest dose used: SEQ. ID. No 6 and 3 2 mg/kg, SEQ. ID. No 2 4 mg/kg, Captopril 50 mg/kg
Experimental: (§1) The effect is studied of various identified peptides and of some products containing them (for example egg white hydrolysed with pepsin for 3 hours and the fraction of it less than 3000 Da) on the arterial pressure of spontaneously hypertensive rats (SHR) and Wistar-Kyoto rats (WKY) which are the normotense controls for the SHR. This study is conducted with SHR (10) and WKY of 17-24 weeks old and weight between 300 and 350 g, coming from Charles River Laboratories […]. The rats are kept in cages of five by five and maintained at a stable temperature of 25° C. with light-dark cycles of 12 hours, ingesting freely available water and food. In order to carry out the measurement of systolic arterial pressure (SAP) “tail cuff” equipment is used (Le5001, Letica) which automatically provides a digital value of the SAP and records and facilitates the cardiac frequency of the animals. Various measurements are made and the average of all of them is obtained in order to achieve a reliable value of the SAP. Before positioning the cuff and transducer in the tail of the rats, the rats are exposed to a temperature of close to 30° C. in order to facilitate dilation of the caudal artery. Also, in order to ensure the reliability of the measurement, the animals are made to get used to the procedure for two weeks prior to conducting each assay in question. The administration of the products to be assayed is done by means of an intragastric probe in a time margin of between 9 and 10 o'clock in the morning. The SHR used for the study had SAP values of between 230 and 280 mm Hg. The WKY used for the study at that moment had SAP values of between 160 and 200 mm Hg. Measurements of the SAP were taken from the animals periodically, every 2 hours, up to 8 hours post-administration of the products to be assayed; in addition, a SAP measurement was taken 24 hours after the administration of those products. As negative control (in order to establish the circadian variation of the SAP in probed rats) the measurements of the SAP obtained in rats which had been administered 1 ml of water by means of intragastric probe were used. […] This dose of Captopril was administered to each rat in a volume of 1 ml. In order to establish the effect of the unhydrolysed egg white on the arterial pressure of the animals, similar assays to those described above were conducted, in which the animals were treated by the same procedure with 200 mg/kg of previously freeze-dried egg white (reference). The results obtained are grouped and the mean±the standard error of measurement (SEM) is obtained for a minimum of 9 homogenous assays. The data of the treated animals are always compared with the data deemed to be a negative control. […]

[3] = test system: spontaneously hypertensive rats (SHR); assay: Anti-hypertensive activity, systolic arterial pressure (SAP), in spontaneously hypertensive rats; assay type: in vivo, rat; conditions: oral, intragastric probe, Captopril 50 mg/kg, SEQ. ID. No 6 and 3 0.5-2 mg/kg, SEQ. ID. No 2 1-4 mg/kg
Experimental: as §1

[4] = test system: angiotensin converting enzyme (ACE); conditions: result in words, literature; cited from earlier work
[5] = test system: spontaneously hypertensive rats (SHR); conditions: literature, cited from earlier work; for anti-hypertensive activity relative to ovokinin (2-7): following administration to SHRs
[6] = test system: spontaneously hypertensive rats (SHR); conditions: ovokinin oral 100 mg/kg, ovokinin (2-7) 10 mg/kg; cited from earlier work
Wistar-Kyoto rats (WKY) [7] = assay: Systolic arterial pressure (tail cuff) in normotense Wistar-Kyoto rats; assay type: in vivo, rat; conditions: highest dose used, intragastric probe
Experimental: (§2) The effect is studied of various identified peptides and of some products containing them (for example egg white hydrolysed with pepsin for 3 hours and the fraction of it less than 3000 Da) on the arterial pressure of spontaneously hypertensive rats (SHR) and Wistar-Kyoto rats (WKY) which are the normotense controls for the SHR.
(§3) This study is conducted with SHR (10) and WKY of 17-24 weeks old and weight between 300 and 350 g, coming from Charles River Laboratories España, S. A. The rats are kept in cages of five by five and maintained at a stable temperature of 25° C. with light-dark cycles of 12 hours, ingesting freely available water and food. In order to carry out the measurement of systolic arterial pressure (SAP) “tail cuff” equipment is used (Le5001, Letica) which automatically provides a digital value of the SAP and records and facilitates the cardiac frequency of the animals. Various measurements are made and the average of all of them is obtained in order to achieve a reliable value of the SAP. Before positioning the cuff and transducer in the tail of the rats, the rats are exposed to a temperature of close to 30° C. in order to facilitate dilation of the caudal artery. Also, in order to ensure the reliability of the measurement, the animals are made to get used to the procedure for two weeks prior to conducting each assay in question.
(§4) The administration of the products to be assayed is done by means of an intragastric probe in a time margin of between 9 and 10 o'clock in the morning. The SHR used for the study had SAP values of between 230 and 280 mm Hg. The WKY used for the study at that moment had SAP values of between 160 and 200 mm Hg. Measurements of the SAP were taken from the animals periodically, every 2 hours, up to 8 hours post-administration of the products to be assayed; in addition, a SAP measurement was taken 24 hours after the administration of those products. As negative control (in order to establish the circadian variation of the SAP in probed rats) the measurements of the SAP obtained in rats which had been administered 1 ml of water by means of intragastric probe were used. As positive control, the measurements of the SAP obtained in rats which had been administered 50 mg/kg of Captopril (prototype ACEI drug) by means of intragastric probe were used. This dose of Captopril was administered to each rat in a volume of 1 ml. In order to establish the effect of the unhydrolysed egg white on the arterial pressure of the animals, similar assays to those described above were conducted, in which the animals were treated by the same procedure with 200 mg/kg of previously freeze-dried egg white (reference).
The results obtained are grouped and the mean±the standard error of measurement (SEM) is obtained for a minimum of 9 homogenous assays. […]

[8] = test system: spontaneously hypertensive rats (SHR); assay: Antihypertensive activity: systolic arterial pressure (tail cuff) in spontaneously hypertensive rats; assay type: in vivo, rat
Experimental: as §2, §3, §4
The results obtained are grouped and the mean±the standard error of measurement (SEM) is obtained for a minimum of 9 homogenous assays. The data of the treated animals are always compared with the data deemed to be a negative control. In order to compare them and obtain the statistical significance, Student's t-test for unpaired data is used and the difference for values of p<0.05 is considered significant.

SMILES	ACEI activity in vitro [1]	effect on SAP (Wistar-Kyoto rats (WKY) [2])	anti-hypertensive activity / drop in SAP [3]	ACEI activity [4]	also measured
CC[C@H](C)[C@H](N)C(=O)N[C@H](C(=O)N[C@@H](Cc1ccccc1)C(=O)O)C(C)C [SEQ. ID. No 2, IVF]	potent ACEI activity in vitro	none of these compounds modifies the SAP of WKY rats	possess anti-hypertensive activity in spontaneously hypertensive rats (SHR); also recorded: display anti-hypertensive activity in rats	–	–
CC(C)C[C@H](NC(=O)[C@H](Cc1ccccc1)NC(=O)[C@@H]1CCCN1C(=O)[C@H](Cc1cnc[nH]1)NC(=O)[C@H](CC(=O)O)NC(=O)[C@H](C)NC(=O)[C@@H](N)CCCNC(=N)N)C(=O)O [SEQ. ID. No 3, RADHPFL] (H-RADHPFL-OH)	potent ACEI activity in vitro	none of these compounds modifies the SAP of WKY rats	possess anti-hypertensive activity in spontaneously hypertensive rats (SHR); also recorded: display anti-hypertensive activity in rats	–	–
CC(C)C[C@H](NC(=O)[C@@H]1CCCN1C(=O)[C@@H](N)CCCNC(=N)N)C(=O)N[C@@H](CCCCN)C(=O)N1CCC[C@H]1C(=O)N[C@@H](Cc1c[nH]c2ccccc12)C(=O)O [RPLKPW] (H-RPLKPW-OH)	–	–	–	neither ovokinin (2-7), nor its RPFHPF (SEQ. ID. NO: 10) or RPLKPW (SEQ. ID. NO: 11) derivatives possessed ACEI activity	minimum effective dose ([5]; SHR): 0.1 mg/kg; anti-hypertensive activity relative to ovokinin (2-7) [5]: 100 times
CC(C)C[C@H](N)C(=O)N[C@@H](Cc1c[nH]c2ccccc12)C(=O)O [LW]	–	–	–	–	anti-hypertensive / vasodilatory activity in SHR (in words) [6]: displayed anti-hypertensive activity; anti-hypertensive activity ([5]; SHR, ovokinin orally 100 mg/kg): displayed anti-hypertensive activity in spontaneously hypertensive rats (SHR)
N=C(N)NCCC[C@H](N)C(=O)N1CCC[C@H]1C(=O)N[C@@H](Cc1ccccc1)C(=O)N[C@@H](Cc1cnc[nH]1)C(=O)N1CCC[C@H]1C(=O)N[C@@H](Cc1ccccc1)C(=O)O [RPFHPF] (H-RPFHPF-OH)	–	–	–	neither ovokinin (2-7), nor its RPFHPF (SEQ. ID. NO: 10) or RPLKPW (SEQ. ID. NO: 11) derivatives possessed ACEI activity	minimum effective dose ([5]; SHR): 1 mg/kg; anti-hypertensive activity relative to ovokinin (2-7) [5]: 10 times
C[C@H](NC(=O)[C@@H](N)CCCNC(=N)N)C(=O)N[C@@H](CC(=O)O)C(=O)N[C@@H](Cc1cnc[nH]1)C(=O)N1CCC[C@H]1C(=O)N[C@@H](Cc1ccccc1)C(=O)O [ovokinin (2-7), RADHPF] (H-RADHPF-OH)	–	–	–	neither ovokinin (2-7), nor its RPFHPF (SEQ. ID. NO: 10) or RPLKPW (SEQ. ID. NO: 11) derivatives possessed ACEI activity	anti-hypertensive / vasodilatory activity in SHR (in words) [6]: exerted a potent vasodilatory action; vasodilatory action ([5]; SHR, doses of 10 mg/kg): potent vasodilatory action in SHR
CC[C@H](C)[C@H](NC(=O)[C@@H]1CCCN1C(=O)[C@H](Cc1ccc(O)cc1)NC(=O)[C@H](CCCNC(=N)N)NC(=O)[C@H](CCC(=O)O)NC(=O)[C@H](CCC(=O)O)NC(=O)[C@H](C)NC(=O)[C@@H](N)Cc1ccc(O)cc1)C(=O)N[C@@H](CC(C)C)C(=O)O [SEQ. ID. No 6] (H-YAEERYPIL-OH)	potent ACEI activity in vitro	none of these compounds modifies the SAP of WKY rats	possess anti-hypertensive activity in spontaneously hypertensive rats (SHR); also recorded: display anti-hypertensive activity in rats	–	–
C[C@H](CS)C(=O)N1CCC[C@H]1C(=O)O [Captopril, reference compound]	–	none of these compounds modifies the SAP of WKY rats	pronounced drop in SAP in the SHR	–	change in SAP in normotense rats (in words) (Wistar-Kyoto rats (WKY) [7]): none of these compounds modifies the SAP; time of maximum drop in SAP after administration ([8]; intragastric probe): 6 h; drop in systolic arterial pressure (SAP) / anti-hypertensive activity (in words) ([8]; single administration by intragastric probe): pronounced drop in SAP
